Laboratory results taken from patent US20220340597A1, “HEXAHYDRO-1H-PYRAZINO[1,2-A]PYRAZINE COMPOUNDS FOR THE TREATMENT OF AUTOIMMUNE DISEASE” (Hoffmann-La Roche Inc., priority 2019, published 2022).
pIC50: −log10 of the molar value.

Molecular target: T1, human TLR9 (Homo sapiens, UniProt Q9NR96)
T1 construct: host or cells: HEK293 (HEK-Blue hTLR9)
T1 sequence (Q9NR96 26-1032): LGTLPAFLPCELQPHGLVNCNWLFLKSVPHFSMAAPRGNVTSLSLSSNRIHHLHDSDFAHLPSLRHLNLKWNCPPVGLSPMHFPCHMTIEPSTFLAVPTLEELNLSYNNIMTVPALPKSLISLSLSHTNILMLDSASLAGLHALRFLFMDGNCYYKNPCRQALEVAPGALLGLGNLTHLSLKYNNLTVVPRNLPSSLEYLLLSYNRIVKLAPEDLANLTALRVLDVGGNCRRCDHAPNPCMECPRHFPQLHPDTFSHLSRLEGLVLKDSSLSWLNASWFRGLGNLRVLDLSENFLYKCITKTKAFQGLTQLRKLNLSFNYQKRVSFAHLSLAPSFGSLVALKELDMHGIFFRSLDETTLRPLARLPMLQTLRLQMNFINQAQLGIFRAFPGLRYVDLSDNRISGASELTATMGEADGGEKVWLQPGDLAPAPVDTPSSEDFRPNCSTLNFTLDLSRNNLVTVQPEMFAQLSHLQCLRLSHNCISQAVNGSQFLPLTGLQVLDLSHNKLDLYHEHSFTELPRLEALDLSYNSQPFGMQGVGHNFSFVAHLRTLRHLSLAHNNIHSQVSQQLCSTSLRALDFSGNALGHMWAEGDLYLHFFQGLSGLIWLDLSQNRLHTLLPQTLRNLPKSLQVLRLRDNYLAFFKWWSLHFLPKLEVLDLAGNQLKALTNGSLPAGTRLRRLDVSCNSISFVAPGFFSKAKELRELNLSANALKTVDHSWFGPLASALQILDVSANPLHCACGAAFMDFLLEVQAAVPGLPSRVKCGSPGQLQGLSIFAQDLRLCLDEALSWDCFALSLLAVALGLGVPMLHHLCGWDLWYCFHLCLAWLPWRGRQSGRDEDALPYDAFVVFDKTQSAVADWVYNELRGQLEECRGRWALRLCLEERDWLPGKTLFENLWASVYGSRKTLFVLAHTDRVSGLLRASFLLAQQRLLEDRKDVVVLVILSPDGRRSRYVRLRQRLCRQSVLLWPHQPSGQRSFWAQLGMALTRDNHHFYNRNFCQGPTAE
Assay: HEK293-Blue-hTLR-9 cells assay
Type: cell-based
Conditions: HEK293-Blue-hTLR9 cells, ODN2006 stimulation, 20 hrs, SEAP reporter; read-out: HEK/hTLR9 IC50
Procedure: The following tests were carried out in order to determine the activity of the compounds of formula (I) and (Ia) in HEK293-Blue-hTLR-7/8/9 cells assay.
HEK293-Blue-hTLR-9 Cells Assay:
A stable HEK293-Blue-hTLR-9 cell line was purchased from InvivoGen (Cat. #: hkb-htlr9, San Diego, Calif., USA). These cells were originally designed for studying the stimulation of human TLR9 by monitoring the activation of NF-κB. A SEAP (secreted embryonic alkaline phosphatase) reporter gene was placed under the control of the […] minimal promoter fused to five NF-κB and AP-1-binding sites. The SEAP was induced by activating NF-κB and AP-1 via stimulating HEK-Blue hTLR9 cells with TLR9 ligands. Therefore, the reporter expression was declined by TLR9 antagonist under the stimulation of a ligand, such as ODN2006 (Cat. #: tlr1-2006-1, Invivogen, San Diego, Calif., USA), for incubation of 20 hrs. The cell culture supernatant SEAP reporter activity was determined using QUANTI-Blue™ kit (Cat. #: rep-qb1, Invivogen, San Diego, Calif., USA) at a wavelength of 640 nm, a detection medium that turns purple or blue in the presence of alkaline phosphatase.
Then 20 μL of the supernatant from each well was incubated with 180 μL Quanti-blue substrate solution at 37° C. for 2 h and the absorbance was read at 620-655 nm using a spectrophotometer. The signaling pathway that TLR9 activation leads to downstream NF-κB activation has been widely accepted, and therefore similar reporter assay was modified for evaluating TLR9 antagonist.

pIC50	Compound
7.11	Cc1cc(N2CCOC[C@H](N)C2)ncc1N1CCN2CCN(c3ccc(C#N)c4ncccc34)CC2C1 (stereo partly drawn) [Example 46, 5-[2-[6-[(6R)-6-amino-1,4-oxazepan-4-yl]-4-methyl-3-pyridyl]-3,4,6,7,9,9a-hexahydro-1H-pyrazino[1,2-a]pyrazin-8-yl]quinoline-8-carbonitrile]
> 7.49	C[C@@H]1CN(c2ccc(C#N)c3ncccc23)C[C@@H]2CN(c3ccnc(N4CCOC[C@@H](N)C4)c3)CCN21 [Example 53, 5-[(4R,9aS)-8-[2-[(6S)-6-amino-1,4-oxazepan-4-yl]-4-pyridyl]-4-methyl-3,4,6,7,9,9a-hexahydro-1H-pyrazino[1,2-a]pyrazin-2-yl]quinoline-8-carbonitrile]
7.37	C[C@@H]1CN(c2ccc(C#N)c3ncccc23)C[C@@H]2CN(c3ccnc(N4CCOC[C@H](N)C4)c3)CCN21 [Example 54, 5-[(4R,9aS)-8-[2-[(6R)-6-amino-1,4-oxazepan-4-yl]-4-pyridyl]-4-methyl-3,4,6,7,9,9a-hexahydro-1H-pyrazino[1,2-a]pyrazin-2-yl]quinoline-8-carbonitrile]
> 7.49	C[C@@H]1CN(c2ccc(C#N)c3ncccc23)C[C@@H]2CN(c3ccnc(N4CC(C)(N)C4)c3)CCN21 [Example 56, 5-[(4R,9aS)-8-[2-(3-amino-3-methyl-azetidin-1-yl)-4-pyridyl]-4-methyl-3,4,6,7,9,9a-hexahydro-1H-pyrazino[1,2-a]pyrazin-2-yl]quinoline-8-carbonitrile]
7.03	C[C@@H]1CN(c2ccc(C#N)c3ncccc23)C[C@@H]2CN(Cc3cncc(N4CCNCC4)c3)CCN21 [Example 57, 5-[(4R,9aS)-4-methyl-8-[(5-piperazin-1-yl-3-pyridyl)methyl]-3,4,6,7,9,9a-hexahydro-1H-pyrazino[1,2-a]pyrazin-2-yl]quinoline-8-carbonitrile]
7.29	C[C@@H]1CN(c2cccc(CCN3CCN4[C@@H](C3)CN(c3ccc(C#N)c5ncccc35)C[C@H]4C)n2)CCN1 [Example 58, 5-[(4R,9aS)-4-methyl-8-[2-[6-[(3R)-3-methylpiperazin-1-yl]-2-pyridyl]ethyl]-3,4,6,7,9,9a-hexahydro-JH-pyrazino[1,2-a]pyrazin-2-yl]quinoline-8-carbonitrile]
7.32	C[C@@H]1CN(c2ccc(C#N)c3ncccc23)C[C@@H]2CN(CCc3ccc(N4CC5(CNCCO5)C4)nc3)CCN21 [Example 59, 5-[(4R,9aS)-4-methyl-8-[2-[6-(5-oxa-2,8-diazaspiro[3.5]nonan-2-yl)-3-pyridyl]ethyl]-3,4,6,7,9,9a-hexahydro-1H-pyrazino[1,2-a]pyrazin-2-yl]quinoline-8-carbonitrile]
7.28	Cc1nc(N2CCNCC2)ccc1CN1CCN2[C@@H](C1)CN(c1ccc(C#N)c3ncccc13)C[C@H]2C [Example 60, 5-[(4R,9aS)-4-methyl-8-[(2-methyl-6-piperazin-1-yl-3-pyridyl)methyl]-3,4,6,7,9,9a-hexahydro-1H-pyrazino[1,2-a]pyrazin-2-yl]quinoline-8-carbonitrile]
7.19	[2H]c1ccc2c(N3C[C@@H]4CN(Cc5ccc6c(c5)CNCC6)CCN4[C@H](C)C3)ccc(C#N)c2n1 [Example 61, 5-[(4R,9aS)-4-methyl-8-(1,2,3,4-tetrahydroisoquinolin-7-ylmethyl)-3,4,6,7,9,9a-hexahydro-1H-pyrazino[1,2-a]pyrazin-2-yl]-2-deuterio-quinoline-8-carbonitrile]
7.37	[2H]c1ccc2c(N3C[C@@H]4CN(CCc5ccc(N6C[C@@H](N)[C@H](OC)C6)nc5)CCN4[C@H](C)C3)ccc(C#N)c2n1 [Example 62, 5-[(4R,9aS)-8-[2-[6-[(3R,4R)-3-amino-4-methoxy-pyrrolidin-1-yl]-3-pyridyl]ethyl]-4-methyl-3,4,6,7,9,9a-hexahydro-1H-pyrazino[1,2-a]pyrazin-2-yl]-2-deuterio-quinoline-8-carbonitrile]
7.49	[2H]c1ccc2c(N3C[C@@H]4CN(CCc5ccc(N6CC7(CN(C)C7)C6)nc5)CCN4[C@H](C)C3)ccc(C#N)c2n1 [Example 64, 5-[(4R,9aS)-4-methyl-8-[2-[6-(6-methyl-2,6-diazaspiro[3.3]heptan-2-yl)-3-pyridyl]ethyl]-3,4,6,7,9,9a-hexahydro-1H-pyrazino[1,2-a]pyrazin-2-yl]-2-deuterio-quinoline-8-carbonitrile]
7.30	C[C@@H]1CN(c2ccc(C#N)c3ncccc23)C[C@@H]2CN(CCc3ccc(N4CC(C)(N)C4)nc3)CCN21 [Example 65, 5-[(4R,9aS)-8-[2-[6-(3-amino-3-methyl-azetidin-1-yl)-3-pyridyl]ethyl]-4-methyl-3,4,6,7,9,9a-hexahydro-1H-pyrazino[1,2-a]pyrazin-2-yl]quinoline-8-carbonitrile]
6.94	CO[C@@H]1CN(c2ccc(CCN3CCN4[C@@H](C3)CN(c3ccc(C#N)n5ncc(F)c35)C[C@H]4C)cc2)C[C@H]1N [Example 66, 4-[(4R,9aS)-8-[2-[4-[(3R,4R)-3-amino-4-methoxy-pyrrolidin-1-yl]phenyl]ethyl]-4-methyl-3,4,6,7,9,9a-hexahydro-1H-pyrazino[1,2-a]pyrazin-2-yl]-3-fluoro-pyrazolo[1,5-a]pyridine-7-carbonitrile]
7.08	CO[C@@H]1CN(c2ccc(CCN3CCN4[C@@H](C3)CN(c3ccc(C#N)n5ncc(F)c35)C[C@H]4C)cn2)C[C@H]1N [Example 67, 4-[(4R,9aS)-8-[2-[6-[(3R,4R)-3-amino-4-methoxy-pyrrolidin-1-yl]-3-pyridyl]ethyl]-4-methyl-3,4,6,7,9,9a-hexahydro-1H-pyrazino[1,2-a]pyrazin-2-yl]-3-fluoro-pyrazolo[1,5-a]pyridine-7-carbonitrile]
7.39	CO[C@@H]1CN(c2ccc(CCN3CCN4[C@@H](C3)CN(c3ccc(C#N)n5nccc35)C[C@H]4C)cc2)C[C@H]1N [Example 68, 4-[(4R,9aS)-8-[2-[4-[(3R,4R)-3-amino-4-methoxy-pyrrolidin-1-yl]phenyl]ethyl]-4-methyl-3,4,6,7,9,9a-hexahydro-1H-pyrazino[1,2-a]pyrazin-2-yl]pyrazolo[1,5-a]pyridine-7-carbonitrile]
7.01	C[C@@H]1CN(c2ccc(C#N)c3ncccc23)C[C@@H]2CN(Cc3cccc4c3CCNC4)CCN21 [Example 70, 5-[(4R,9aS)-4-methyl-8-(1,2,3,4-tetrahydroisoquinolin-5-ylmethyl)-3,4,6,7,9,9a-hexahydro-1H-pyrazino[1,2-a]pyrazin-2-yl]quinoline-8-carbonitrile]
7.10	C[C@@H]1CN(c2ccc(C#N)c3ncccc23)C[C@@H]2CN(Cc3cccc4c3CNCC4)CCN21 [Example 71, 5-[(4R,9aS)-4-methyl-8-(1,2,3,4-tetrahydroisoquinolin-8-ylmethyl)-3,4,6,7,9,9a-hexahydro-1H-pyrazino[1,2-a]pyrazin-2-yl]quinoline-8-carbonitrile]
7.05	C[C@@H]1CN(c2ccc(C#N)c3ncccc23)C[C@@H]2CN(Cc3cccc4c3CNC4)CCN21 [Example 72, 5-[(4R,9aS)-8-(isoindolin-4-ylmethyl)-4-methyl-3,4,6,7,9,9a-hexahydro-1H-pyrazino[1,2-a]pyrazin-2-yl]quinoline-8-carbonitrile]
> 7.49	Cc1cc(N2CCN3[C@@H](C2)CN(c2ccc(C#N)c4ncccc24)C[C@H]3C)cc(N2CC(C)(N)C2)n1 [Example 73, 5-[(4R,9aS)-8-[2-(3-amino-3-methyl-azetidin-1-yl)-6-methyl-4-pyridyl]-4-methyl-3,4,6,7,9,9a-hexahydro-1H-pyrazino[1,2-a]pyrazin-2-yl]quinoline-8-carbonitrile]
